Laboratory results as given in patent publication US5091390A, “Treatment of CNS disorders with 4,5,6,7-tetrahydro-1H-imidazo (4,5-)-pyridines and analogs” (E. I. du Pont de Nemours and Company, priority 1990, dated 1992).
Where “and” joins values, the source holds several entries; their conditions need not be identical. Equal values may be shown once. Entries after “also recorded” stand apart in the source; their conditions may differ. Read-outs that look alike come from different tables or passages of the source.

Key:
AII-1 receptor [1] = test: [125I]AII radioligand binding, rat adrenal cortical microsomes, AII-1 (DuP 753-sensitive) sites; details: for preference for one AII receptor subtype: AII-1 vs. AII-2
Protocol: (§2) The same procedures and conditions were used for adrenal medullary microsomes. […] After 60 min of incubation, the reaction was terminated by addition of cold assay buffer. The bound and free radioactivity were rapidly separated through glass-fiber filters, and the trapped radioactivity was determined by gamma counting.

AII-2 receptor [2] = target: T1, AII-2 receptor (Rattus norvegicus, UniProt P35351); test: [125I]AII radioligand binding, rat adrenal cortical microsomes, AII-2 (DuP 753-insensitive) sites; details: for selective binding to AII-2 receptors: AII-2 vs. AII-1
T1 sequence (P35351 1-363): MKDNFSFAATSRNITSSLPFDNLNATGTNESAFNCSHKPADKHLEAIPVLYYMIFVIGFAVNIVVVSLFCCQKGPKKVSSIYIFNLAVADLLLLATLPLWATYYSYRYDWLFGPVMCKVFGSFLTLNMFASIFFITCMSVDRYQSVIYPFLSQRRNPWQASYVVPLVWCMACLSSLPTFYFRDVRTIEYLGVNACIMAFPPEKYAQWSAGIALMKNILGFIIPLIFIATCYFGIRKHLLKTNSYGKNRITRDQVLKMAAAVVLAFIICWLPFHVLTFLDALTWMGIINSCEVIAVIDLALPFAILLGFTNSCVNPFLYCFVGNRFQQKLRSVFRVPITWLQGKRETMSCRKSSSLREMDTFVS
Protocol: as §2

[3] = system: AII receptors (rat adrenal gland); details: DuP 753 10^-5 M, XB-655 10^-6 M
Protocol: Fresh tissue was frozen on powdered dry ice and stored at -70° C. until used. Sections were cut at 15 microns and thaw mounted onto gelatin subbed slides. […] Slides were placed under X-ray film (Kodak XAR-5) and exposed for 11/2 days before processing the film to produce the film autoradiograms. The slides were then fixed with paraformaldehyde vapor at 80° C. for two hours, dried under air, delipidated, and dipped in emulsion (Kodak NTB-2). The coated slides were exposed for 4-5 weeks, developed with Kodak D-19 and counter-stained with hemotoxylin-eosin to view the histology.

[4] = system: AII receptors (rat adrenal cortical microsomes); test: [125I]AII total specific binding, rat adrenal cortex / cortical microsomes
Protocol: as §2

[5] = system: AII receptors (rat adrenal medullary microsomes); test: [125I]AII specific binding, rat adrenal medulla / medullary microsomes; details: below 1×10^-5 M; rat adrenal medullary microsomes
Protocol: as §2

[6] = target: T2, AII receptors (rat adrenal medullary microsomes) (Rattus norvegicus, UniProt P35351); test: as above
T2 construct: from tissue; host or cells: rat adrenal medulla, microsomes
T2 sequence (P35351 1-363): T1 sequence (P35351 1-363)
Protocol: as §2

[7] = system: AII receptors (rat adrenal cortical membranes); test: AII binding to rat adrenal cortical membranes with and without DTT pretreatment; details: for effect of DTT on the inhibition of AII binding: 5 mM DTT, DuP 753 at 3×10^-9 to 3×10^-6 M
Text: (§1) 102: 685-696, except the above binding assay conditions were used.

[8] = system: retention of a passive avoidance (PA) response; details: injected into the dorsal neostriatum, rats; cited from earlier work
AII receptor subtype B = details: cited from earlier work
AII-1 receptor [9] = test: DTT inactivation of the AII-1 receptor; format: binding, rat
Text: as §1

AII receptor subtype A = details: cited from earlier work
AII-2 receptor [10] = target: T1, AII-2 receptor; test: DTT inactivation of the AII-2 receptor; format: binding; design: AII-1 and AII-2 receptor subtypes in rat adrenal cortex microsomes; from tissue; host or cells: rat adrenal cortex (microsomes)
Text: as §1

[11] = system: memory of previously learned tasks; details: in vivo; cited from earlier work
PA task = test: renin-induced amnesia in a PA task (applicants); format: in vivo; details: IVT
avoidance learning = details: renin IVT, cited from earlier work; for avoidance learning: captopril IVT prior to the renin injection
[12] = system: light/dark habituation performance; details: cited from earlier work
[13] = system: potassium stimulated release of [^3 H]ACh; details: entorhinal cortex of rat brain; cited from earlier work
[14] = in the presence of 10^-5 M XB-655, rat adrenal cortex microsomes, read-out: IC50 AII-1

COC(=O)C1Cc2c(ncn2Cc2ccc(NC(=O)c3ccccc3C(=O)O)c(C)c2)CN1C(=O)C(c1ccccc1)c1ccccc1 (centres unmarked) [Example 2, Methyl-1-[4-amido-(2'-carboxyphenyl)-3-methylphenyl]methyl-5-diphenylacetyl-4,5,6,7-tetrahydro-1H-imidazo (4,5-C)-pyridine-6-carboxylate]
IC50 (AII-1 receptor [1]; [14]): 12000 nM
selective binding to AII-2 receptors (AII-2 receptor [2]): bind selectively to AII-2 receptors

CCCCc1nc(Cl)c(CO)n1Cc1ccc(-c2ccccc2-c2nn[nH]n2)cc1 [DuP 753]
IC50 (AII-1 receptor [1]; [14]): 12 nM
labeling of adrenal cortex by [125I]AII [3]: significantly reduced
labeling of adrenal medulla by [125I]AII [3]: not appreciably affected
inhibition of the total AII binding [4]: 80%
inhibition of binding below 1×10^-5 M [5]: 10%
inhibition of AII binding (in words) ([6]; rat adrenal medulla): essentially inactive
effect of DTT on the inhibition of AII binding [7]: essentially abolished

NC(=O)[C@@H]1CCCN1C(=O)[C@H](Cc1cnc[nH]1)NC(=O)[C@@H]1CCC(=O)N1 [thyrotropin releasing hormone]
retention of a PA response [8]: no effect

O=C(O)C1Cc2c(ncn2Cc2ccc(-c3ccccc3-c3nnn[nH]3)cc2)CN1C(=O)C(c1ccccc1)c1ccccc1 (centres unmarked) [Example 27]
IC50 (AII-1 receptor [1]; [14]): 300000 nM
selective binding to AII-2 receptors (AII-2 receptor [2]): bind selectively to AII-2 receptors

O[C@H](CS)[C@H](O)CS (racemic) [DTT, dithiothreitol]
effect of DTT on binding to subtype B (AII receptor subtype B): inhibit binding to subtype B
inactivation of AII-1 receptor by DTT (AII-1 receptor [9]): particularly sensitive to inactivation; also recorded: inactivated by DTT
effect of DTT on binding to subtype A (AII receptor subtype A): enhance binding to subtype A
inactivation of AII-2 receptor by DTT (AII-2 receptor [10]): resistant to DTT inactivation

CNCC(=O)N[C@@H](CCCN=C(N)N)C(=O)N[C@H](C(=O)N[C@@H](Cc1ccc(O)cc1)C(=O)N[C@H](C(=O)N[C@@H](Cc1cnc[nH]1)C(=O)N1CCC[C@H]1C(=O)N[C@@H](C)C(=O)O)C(C)C)C(C)C [Saralasin]
preference for one AII receptor subtype (AII-1 receptor [1]): no preference
IC50 (AII-1 receptor [1]; [14]): 1.7 nM
IC50 (AII-1 receptor [1]; read-out: IC50, DuP 753-sensitive site, in the presence of 10^-5 M XB-655, unit inferred): ~1.7 nM
IC50 (AII-2 receptor [2]; IC50 AII-2, in the presence of 10^-5 M DuP 753, rat adrenal cortex microsomes): ~1.3 nM and 1.3 nM
IC50 ([6]; rat adrenal medulla / medullary microsomes): 0.4 nM
effect of DTT on the inhibition of AII binding [7]: not significantly altered

NCCCC[C@H](OP(=O)(O)CCCCc1ccccc1)C(=O)N1CCC[C@H]1C(=O)O [SQ 29852]
anticholinergic effect on performance [11]: ameliorate, at least in part
memory of previously learned tasks [11]: protective effects on memory

C[C@H](CS)C(=O)N1CCC[C@H]1C(=O)O [captopril]
amnesia in a PA task (PA task): prevented
avoidance learning (avoidance learning): prevented the renin-induced avoidance disruption
anticholinergic scopolamine-induced disruption of performance ([12]; daily treatment): prevented
rate of acquisition of light/dark habituation performance ([12]; subchronic treatment): increased the rate of acquisition

Angiotensin II (DRVYIHPF; Angiotensin-2; UniProt P01019 25-32, looked up) [AII, octapeptide hormone which is a component of the renin-angiotensin system]
retention of a PA response [8]: disruption in retention of a PA response
preference for one AII receptor subtype (AII-1 receptor [1]): no preference
basal levels of ACh release [13]: without effects on basal levels
potassium-stimulated release of ACh [13]: reduced potassium-stimulated release of ACh
labeling of adrenal cortex by [125I]AII [3]: potently inhibited the labeling
labeling of adrenal medulla by [125I]AII [3]: potently inhibited the labeling
enhancement of inhibitory potency by DTT ([7]; presence vs. absence of DTT): 2.5 fold
IC50 ([7]; read-out: IC50 in the absence of DTT, absence of DTT): 1 nM

[1-sarcosine, 8-threonine]angiotensin II
antagonism of the AII effect on ACh release [13]: antagonized

lysine-8-vasopressin
retention of a PA response [8]: no effect

B1: renin: an enzyme involved in endogenous AII biosynthesis (protein, UniProt P00797 67-406, looked up)
Renin: LTLGNTTSSVILTNYMDTQYYGEIGIGTPPQTFKVVFDTGSSNVWVPSSKCSRLYTACVYHKLFDASDSSSYKHNGTELTLRYSTGTVSGFLSQDIITVGGITVTQMFGEVTEMPALPFMLAEFDGVVGMGFIEQAIGRVTPIFDNIISQGVLKEDVFSFYYNRDSENSQSLGGQIVLGGSDPQHYEGNFHYINLIKTGVWQIQMKGVSVGSSTLLCEDGCLALVDTGASYISGSTSSIEKLMEALGAKKRLFDYVVKCNEGPTLPDISFHLGGKEYTLTSADYVFQESYSSKKLCTLAIHAMDIPPPTGPTWALGATFIRKFYTEFDRRNNRIGFALAR
amnesia in a PA task (PA task): dose-related amnesia
avoidance learning (avoidance learning): disruption of avoidance learning
AII level in cerebrospinal fluid (CSF) (avoidance learning; increase from 40): about 5000 fmol per mL
